# Laboratory results as given in EP0349354A1, “Peptides PF10 to PF19 from a retro virus HIV, method for the synthesis of these peptides and their use, particularly in diagnostics” (INSTITUT PASTEUR, priority 1988, dated 1990).
# How the values were obtained:
# [1] = test system: anticorps anti-nef; assay: ELISA for detection of anti-nef antibodies on coated peptides or nef; type: binding, humain; conditions: 500 ng coated per well
# Experimental: Des plaques de microtitration à 96 puits ont été recouvertes une nuit avec 500 ng de protéine nef bactérienne, à 37°C ou avec 500 ng de peptides synthétiques par puits dans 50µl de PBS à pH 7,4. Après saturation avec 400 µl de PBS pH 7,4, contenant 5% de caséine, durant 1 heure à 37°C et lavage avec PBS à pH 7,4, 0,5% de BSA, 0,01% tween, 50 µl de sérums à différentes dilutions ont été ajoutés pendant 2 heures à 37°C. Après le rinçage, 50µl de complexes d'IgG de souris anti-humaine-(H + L)-peroxydase 1:1000 ont été incubés pendant 1 heure à 37°C. Après un nouveau rinçage, 100µl de OPD ont été ajoutés pendant 30mn à température ambiante dans l'obscurité. La réaction de l'enzyme a été arrêtée par addition de 50µl d'acide sulfurique 4N et la densité optique des plaques a été lue à 492 nm/620 nm. Les plaques recouvertes avec la caséine ont été utilisées comme contrôle négatif.
# En vue d'étudier la possibilité d'utiliser des peptides synthétiques en tant qu'antigènes pour la détection d'anticorps anti-nef chez des patients infectés par HIV, 8 peptides synthétiques couvrant la totalité de la séquence de la protéine nef de HIV-1 (figure 4) ont été utilisés dans un test ELISA avec 31 sérums anti-nef positifs et 2 sérums anti-nef négatifs utilisés comme contrôle. Les recombinants nef ont été utilisés comme contrôle positif dans les tests ELISA et la caséine a été utilisée comme contrôle négatif. Les résultats de ces expériences sont donnés dans le tableau 4 qui illustre l'essai suivant: Essai ELISA sur 31 sérums anti-nef-positifs et 2 sérums anti-nef- négatifs, soit pré-recouverts avec des peptides synthétiques (PF 11 à PF 18), soit en utilisant nef, la caséine ou un mélange de peptides PF 12 et PF 17. Les sérums ont été sélectionnés au hasard parmi des sérums anti-nef positifs et anti-nefs négatifs testés par la méthode RIA en utilisant ¹²⁵I nef. L'intensité de l'immunoradioactivité est notée "-" pour une densité optique (OD) inférieure à 0,2; "+" pour OD = 0,2 à 0,4; "++" pour OD = 0,4 à 0,8 et "+++" pour OD = 0,8 à 2,0.
# [2] = test system: anticorps anti-protéine F; assay: Western blot test on peptide spots with sera of HIV-1 infected patients; type: binding, humain
# Experimental: Pour les besoins du test, les différents peptides PF16, PF19, PF13, PF17 utilisés sont dilués à une concentration de 2 mg/ml.
# Sur une bande de papier BIORAD pour transblot, on dépose différents spots : 1µl, 2µl, 5µl, 10µl.
# Après séchage on pratique un test Western Blot classique en utilisant comme anticorps des sérums de patients infectés par le virus HIV-1, positifs pour la protéine F, à des dilutions variant de 1/100 à 1/300.
# Les peptides testés permettent d'aboutir aux résultats résumés dans le tableau 2 avec trois sérums différents anti-F ++ (++ signifiant une réaction plus marquée).
sequence,measurement,setting,value
XASRDLEKHGAITSSNTAATNAACAWLEAQEEEEZ [PF13],"intensité de l'immunoréactivité (OD), Serum 1","[1]; Serum 1, anti-nef positive","+ (pour OD = 0,2 à 0,4)"
same,"intensité de l'immunoréactivité (OD), Serum 2","[1]; Serum 2, anti-nef positive","- (pour une densité optique (OD) inférieure à 0,2)"
same,"intensité de l'immunoréactivité (OD), Serum 3","[1]; Serum 3, anti-nef positive","+++ (pour OD = 0,8 à 2,0)"
same,"intensité de l'immunoréactivité (OD), Serum 4","[1]; Serum 4, anti-nef positive","+ (pour OD = 0,2 à 0,4)"
same,"intensité de l'immunoréactivité (OD), Serum 5","[1]; Serum 5, anti-nef positive","- (pour une densité optique (OD) inférieure à 0,2)"
same,"intensité de l'immunoréactivité (OD), Serum 6","[1]; Serum 6, anti-nef positive","- (pour une densité optique (OD) inférieure à 0,2)"
same,"intensité de l'immunoréactivité (OD), Serum 7","[1]; Serum 7, anti-nef positive","++ (pour OD = 0,4 à 0,8)"
same,"intensité de l'immunoréactivité (OD), Serum 8","[1]; Serum 8, anti-nef positive","++ (pour OD = 0,4 à 0,8)"
same,"intensité de l'immunoréactivité (OD), Serum 9","[1]; Serum 9, anti-nef positive","++ (pour OD = 0,4 à 0,8)"
same,"intensité de l'immunoréactivité (OD), Serum 10","[1]; Serum 10, anti-nef positive","- (pour une densité optique (OD) inférieure à 0,2)"
same,"intensité de l'immunoréactivité (OD), Serum 11","[1]; Serum 11, anti-nef positive","- (pour une densité optique (OD) inférieure à 0,2)"
same,"intensité de l'immunoréactivité (OD), Serum 12","[1]; Serum 12, anti-nef positive","- (pour une densité optique (OD) inférieure à 0,2)"
same,"intensité de l'immunoréactivité (OD), Serum 13","[1]; Serum 13, anti-nef positive","- (pour une densité optique (OD) inférieure à 0,2)"
same,"intensité de l'immunoréactivité (OD), Serum 14","[1]; Serum 14, anti-nef positive","++ (pour OD = 0,4 à 0,8)"
same,"intensité de l'immunoréactivité (OD), Serum 15","[1]; Serum 15, anti-nef positive","- (pour une densité optique (OD) inférieure à 0,2)"
same,"intensité de l'immunoréactivité (OD), Serum 16","[1]; Serum 16, anti-nef positive","- (pour une densité optique (OD) inférieure à 0,2)"
same,"intensité de l'immunoréactivité (OD), Serum 17","[1]; Serum 17, anti-nef positive","- (pour une densité optique (OD) inférieure à 0,2)"
same,"intensité de l'immunoréactivité (OD), Serum 18","[1]; Serum 18, anti-nef positive","- (pour une densité optique (OD) inférieure à 0,2)"
same,"intensité de l'immunoréactivité (OD), Serum 19","[1]; Serum 19, anti-nef positive","- (pour une densité optique (OD) inférieure à 0,2)"
same,"intensité de l'immunoréactivité (OD), Serum 20","[1]; Serum 20, anti-nef positive","- (pour une densité optique (OD) inférieure à 0,2)"
same,"intensité de l'immunoréactivité (OD), Serum 21","[1]; Serum 21, anti-nef positive","- (pour une densité optique (OD) inférieure à 0,2)"
same,"intensité de l'immunoréactivité (OD), Serum 22","[1]; Serum 22, anti-nef positive","- (pour une densité optique (OD) inférieure à 0,2)"
same,"intensité de l'immunoréactivité (OD), Serum 23","[1]; Serum 23, anti-nef positive","- (pour une densité optique (OD) inférieure à 0,2)"
same,"intensité de l'immunoréactivité (OD), Serum 24","[1]; Serum 24, anti-nef positive","- (pour une densité optique (OD) inférieure à 0,2)"
same,"intensité de l'immunoréactivité (OD), Serum 25","[1]; Serum 25, anti-nef positive","- (pour une densité optique (OD) inférieure à 0,2)"
same,"intensité de l'immunoréactivité (OD), Serum 26","[1]; Serum 26, anti-nef positive","- (pour une densité optique (OD) inférieure à 0,2)"
same,"intensité de l'immunoréactivité (OD), Serum 27","[1]; Serum 27, anti-nef positive","- (pour une densité optique (OD) inférieure à 0,2)"
same,"intensité de l'immunoréactivité (OD), Serum 28","[1]; Serum 28, anti-nef positive","- (pour une densité optique (OD) inférieure à 0,2)"
same,"intensité de l'immunoréactivité (OD), Serum 29","[1]; Serum 29, anti-nef positive","++ (pour OD = 0,4 à 0,8)"
same,"intensité de l'immunoréactivité (OD), Serum 30","[1]; Serum 30, anti-nef positive","- (pour une densité optique (OD) inférieure à 0,2)"
same,"intensité de l'immunoréactivité (OD), Serum 31","[1]; Serum 31, anti-nef positive","- (pour une densité optique (OD) inférieure à 0,2)"
same,"intensité de l'immunoréactivité (OD), Serum 32","[1]; Serum 32, anti-nef negative control serum","- (pour une densité optique (OD) inférieure à 0,2)"
same,"intensité de l'immunoréactivité (OD), Serum 33","[1]; Serum 33, anti-nef negative control serum","- (pour une densité optique (OD) inférieure à 0,2)"
same,"réaction avec sérum 1545 1/200, 10µl","[2]; serum 1545 diluted 1/200, spot 10µl of peptide at 2 mg/ml",tr
same,"réaction avec sérum CHA 1/300, 1µl","[2]; serum CHA diluted 1/300, spot 1µl of peptide at 2 mg/ml",tr
same,"réaction avec sérum CHA 1/300, 2µl","[2]; serum CHA diluted 1/300, spot 2µl of peptide at 2 mg/ml",tr
